SMILES strings stand for the structures. Read-outs that look alike come from different tables or passages of the source.

The target of this assay is T1, testosterone 5α-reductase (Rattus norvegicus, UniProt P24008).
T1 sequence (P24008 1-259): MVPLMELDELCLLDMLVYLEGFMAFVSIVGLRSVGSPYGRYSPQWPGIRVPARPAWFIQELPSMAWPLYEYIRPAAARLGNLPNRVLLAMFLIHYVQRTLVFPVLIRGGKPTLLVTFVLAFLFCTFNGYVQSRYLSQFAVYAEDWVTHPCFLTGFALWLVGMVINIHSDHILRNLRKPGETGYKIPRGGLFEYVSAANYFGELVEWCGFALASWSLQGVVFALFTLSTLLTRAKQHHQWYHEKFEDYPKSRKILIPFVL
Nature of the assay: Assay for testosterone 5α-reductase inhibitory activity (rat liver S9 fractions, HPLC of remaining testosterone). It counts as biochemical. Here is the method:
The experiment was performed in accordance with previously reported methods (Matsuda et al., [2001]; Lee et al., [2012]; Koseki et al., [2015]) with slight modifications. In brief, the assay was performed in 48-well microplates (Sumitomo Bakelite Co., Ltd., Tokyo, Japan). The reaction solution was pre-incubated with or without a test sample (5 μL/well, dissolved in DMSO), in a potassium phosphate buffer (40 mM, pH 6.5, 490 μL/well) containing substrate (0.35 nmol of testosterone, Tokyo Chemical Industry Co., Ltd., Tokyo, Japan) and NADPH (10 nmol, Oriental Yeast Co., Ltd., Tokyo, Japan) at room temperature (25°C) for 20 min. The enzymatic reaction was initiated by the addition of rat liver S9 fractions (10 μL/well, dissolved in the phosphate buffer, 20.6 μg/well, Oriental Yeast Co., Ltd., Tokyo, Japan, lot no. 109031513) at 37°C for 30 min. After incubation, the reaction mixture was immediately heated in boiling water for 2 min to stop the reaction. Then the reaction solution of each well was transferred to a microtube and extracted with 500 μL of EtOAc. After the microtube was centrifuged (10,000 rpm, 5 min), an aliquot of each EtOAc phase (300 μL) was transferred into another tube. The solvent in the tube was evaporated and the residue was dissolved in 30 μL of acetonitrile containing an internal standard (I.S.) fludrocortisone acetate (20 μg/mL, Sigma-Aldrich, Co., LLC, St. Louis, USA). […] The 5α-reductase inhibitory activity was determined from the following equation using the peak area ratios (r = testosterone/I.S.). Experiments were performed in triplicate or quadruple, and IC50 values were determined graphically. The 5α-reductase inhibitor finasteride (Tokyo Chemical Industry Co., Ltd., Tokyo, Japan) was used as a reference compound.
Inhibition(%)=[r(T)-r(C)/r(B)-r(C)]× 100
Control (C): enzyme (+), test sample (–); Test (T): enzyme (+), test sample (+); Blank (B): enzyme (–), test sample (+).

The mark [1] stands for this setting: 100 μM, mean ± S.E.M. (N = 3–4), read-out: Inhibition (%).
Setting [2] is: 3 μM, mean ± S.E.M. (N = 3–4), read-out: Inhibition (%).
Setting [3] is: 10 μM, mean ± S.E.M. (N = 3–4), read-out: Inhibition (%).
The mark [4] stands for this setting: 30 μM, mean ± S.E.M. (N = 3–4), read-out: Inhibition (%).

As for `CC(C)CC(=O)c1c2c(c3oc(=O)cc(-c4ccccc4)c3c1O)C=CC(C)(C)O2` [Compound 24, Mammea A/AA cyclo D], the inhibition at 100 µM under setting [1] stood at 38.3 ± 3.8%.

Consider `CCCc1cc(=O)oc2c3c(c(C(=O)C(C)CC)c(O)c12)OC(C)(C)C=C3` (centres unmarked) [Compound 27, Mammea B/AB cyclo D], for which the inhibition at 100 µM under setting [1] was determined as 40.7 ± 18.1%.

On to `CC(C)=CCc1c(O)c(C(=O)C(C)C)c(O)c2c(-c3ccccc3)cc(=O)oc12` [Compound 20, Mammea A/AD], for which, under setting [1], the inhibition at 100 µM was 30.3 ± 2.1%.

`CC[C@H](O)c1cc(=O)oc2c3c(c(C(=O)CC(C)C)c(O)c12)OC(C)(C)C=C3` [Compound 31, deacetylmammea E/AA cyclo D]: the inhibition at 100 µM under setting [1] worked out at 37.1 ± 4%.

Turning to `CCCC(=O)c1c(O)c(C/C=C(\C)CCC=C(C)C)c(O)c2c([C@H](CC)OC(C)=O)cc(=O)oc12` [Compound 4, Mammeasin A], the inhibition at 3 µM under setting [2] was found to be 12.6 ± 10.5%. For the same molecule, under setting [3], the inhibition at 10 µM stood at 40.8 ± 12.8%. The inhibition at 30 µM under setting [4] turned out to be 53.1 ± 5.2%. Moreover, the inhibition at 100 µM under setting [1] is 129 ± 20.9%.

With `CC(C)=CCC/C(C)=C/Cc1c(O)c(C(=O)C(C)C)c2oc(=O)cc3c2c1OC(C)C3` (centres unmarked) [Compound 6, Mammeasin C], the inhibition at 3 µM under setting [2] came out at 3.4 ± 13.1%. For the same molecule, the inhibition at 10 µM under setting [3] is 8.8 ± 10%. The inhibition at 30 µM under setting [4] came out at 17.9 ± 10.6%. The inhibition at 100 µM under setting [1] stood at 52.9 ± 22.5%.

With `CC[C@H](O)c1cc(=O)oc2c(C(=O)CC(C)C)c(O)c3c(c12)OC(C)(CCC=C(C)C)C=C3` (some centres unmarked) [Compound 2, Mammeasin E], under setting [2], the inhibition at 3 µM is 20 ± 9.2%. For the same molecule, under setting [3], the inhibition at 10 µM amounted to 30.9 ± 9.3%. Moreover, under setting [4], the inhibition at 30 µM stood at 53.9 ± 12.7%. In addition, the inhibition at 100 µM under setting [1] worked out at 89.5 ± 15.8%.

Consider `CCCC(=O)c1c(O)c(CC=C(C)C)c2oc(=O)cc([C@@H](O)CC)c2c1O` [Compound 9, Kayeassamin E], for which the inhibition at 3 µM under setting [2] is 2.6 ± 7.1%. For the same molecule, the inhibition at 10 µM under setting [3] was 11.5 ± 12.7%. Moreover, under setting [4], the inhibition at 30 µM amounted to 51.1 ± 12.4%. Also, under setting [1], the inhibition at 100 µM turned out to be 79.9 ± 12.7%.

Consider `CCCC(=O)c1c(O)c(C/C=C(\C)CCC=C(C)C)c(O)c2c([C@@H](O)CC)cc(=O)oc12` [Compound 8, kayeassamin A], for which the inhibition at 100 µM under setting [1] was 20.2 ± 7.9%.

With `CCC(C)C(=O)c1c(O)c2c(c3c([C@@H](O)CC)cc(=O)oc13)OC(C)(C)C=C2` (some centres unmarked) [Compound 32, deacetylmammea E/BB cyclo D], the inhibition at 100 µM under setting [1] was 31.9 ± 8.8%.

In the case of `CCCC(=O)c1c(O)c2c(c3c([C@@H](O)CC)cc(=O)oc13)OC(C)(C)C=C2` [Compound 33, deacetylmammea E/BC cyclo D], the inhibition at 100 µM under setting [1] turned out to be 40.8 ± 4.1%.

On to `CCC(C)C(=O)c1c(O)c(CC=C(C)C)c2oc(=O)cc([C@@H](O)CC)c2c1O` (some centres unmarked) [Compound 10, Kayeassamin F], for which the inhibition at 3 µM under setting [2] turned out to be 4.6 ± 1.1%. For the same molecule, the inhibition at 10 µM under setting [3] amounted to 41 ± 6.4%. The inhibition at 30 µM under setting [4] was 68.6 ± 3.9%. Also, the inhibition at 100 µM under setting [1] came out at 94.6 ± 1.3%.

On to `CCCC(=O)c1c2c(c3oc(=O)cc(CCC)c3c1O)C=CC(C)(C)O2` [Compound 28, Mammea B/AC cyclo D], for which, under setting [1], the inhibition at 100 µM was found to be 27.3 ± 2%.

Turning to `CCC(C)C(=O)c1c(O)c(C/C=C(\C)CCC=C(C)C)c(O)c2c([C@@H](O)CC)cc(=O)oc12` (some centres unmarked) [Compound 13, surangin C], the inhibition at 3 µM under setting [2] came to 28.2 ± 7.7%. Besides, the inhibition at 10 µM under setting [3] came out at 63.6 ± 8.3%. Further, the inhibition at 30 µM under setting [4] worked out at 114 ± 6.7%. In addition, the inhibition at 100 µM under setting [1] is 124 ± 9.6%.

Consider `CCCC(=O)c1c(O)c2c(c3c([C@@H](O)CC)cc(=O)oc13)OC(C)(CCC=C(C)C)C=C2` (some centres unmarked) [Compound 1, kayeassamin I], for which, under setting [1], the inhibition at 100 µM was found to be 37.5 ± 11.1%.

For the molecule `CC(C)(C)NC(=O)[C@H]1CC[C@H]2[C@@H]3CC[C@H]4NC(=O)C=C[C@]4(C)[C@H]3CC[C@]12C` [Finasteride, finasteride, reference compound], the inhibition at 0.1 µM is 48.5 ± 10.9%, the inhibition at 0.3 µM was found to be 61.8 ± 11.4%, the inhibition at 1 µM is 76 ± 9.8% and the inhibition at 3 µM is 91.3 ± 13.1%.

On to `CCCC(=O)c1c(O)c(C/C=C(\C)CCC=C(C)C)c2c3c(cc(=O)oc13)CC(C)O2` (centres unmarked) [Compound 7, Mammeasin D], for which the inhibition at 100 µM under setting [1] stood at 16.4 ± 5.8%.

Turning to `CCC(C)C(=O)c1c2c(c3oc(=O)cc(-c4ccccc4)c3c1O)C=CC(C)(C)O2` (centres unmarked) [Compound 25, Mammea A/AB cyclo D], the inhibition at 100 µM under setting [1] was found to be 6.7 ± 4.5%.

For the molecule `CC[C@H](OC(C)=O)c1cc(=O)oc2c(C(=O)CC(C)C)c(O)c(C/C=C(\C)CCC=C(C)C)c(O)c12` [Compound 5, Mammeasin B], the inhibition at 3 µM under setting [2] was determined as 35.3 ± 6.1%. Under setting [3], the inhibition at 10 µM stood at 39.9 ± 4.2%. Besides, under setting [4], the inhibition at 30 µM was found to be 58.8 ± 9.6%. Besides, the inhibition at 100 µM under setting [1] was determined as 83.7 ± 4.3%.

For the molecule `CC(C)CC(=O)c1c2c(c3oc(=O)cc(-c4ccccc4)c3c1O)CC(C(C)(C)O)O2` (centres unmarked) [Compound 34, mammea A/AA cyclo F], the inhibition at 3 µM under setting [2] turned out to be 13.8 ± 6.7%. Besides, the inhibition at 10 µM under setting [3] was 21.6 ± 10.3%. Besides, the inhibition at 30 µM under setting [4] was determined as 62.8 ± 18.1%. Under setting [1], the inhibition at 100 µM was 57 ± 15.7%.

As to `CC(C)=CCc1c(O)c(C(=O)CC(C)C)c(O)c2c(-c3ccccc3)cc(=O)oc12` [Compound 17, Mammea A/AA], the inhibition at 3 µM worked out at 18.9 ± 7%, the inhibition at 10 µM is 32 ± 3.9%, the inhibition at 30 µM was determined as 62 ± 2.8% and the inhibition at 100 µM stood at 92.9 ± 5.3%.

Consider `CCCC(=O)c1c(O)c2c(c3c(C(CC)OC(C)=O)cc(=O)oc13)OC(C)(C)C=C2` (centres unmarked) [Compound 29, Mammea E/BC cyclo D], for which the inhibition at 100 µM under setting [1] amounted to 31.9 ± 3.9%.

Take `CCCC(=O)c1c2c(c3oc(=O)cc(-c4ccccc4)c3c1O)C=CC(C)(C)O2` [Compound 26, Mammea A/AC cyclo D]: the inhibition at 100 µM under setting [1] is 32 ± 1.9%.

For the molecule `CCCC(=O)c1c2c(c3oc(=O)cc(-c4ccccc4)c3c1O)CC(C(C)(C)O)O2` (centres unmarked) [Compound 35, mammea A/AC cyclo F], under setting [2], the inhibition at 3 µM amounted to 4.2 ± 6.1%. Under setting [3], the inhibition at 10 µM amounted to 18.4 ± 6.9%. Besides, the inhibition at 30 µM under setting [4] came out at 32.5 ± 6%. Moreover, the inhibition at 100 µM under setting [1] came to 54.8 ± 23.2%.

On to `CCC(C)C(=O)c1c(O)c2c(c3c([C@@H](O)CC)cc(=O)oc13)OC(C)(CCC=C(C)C)C=C2` (some centres unmarked) [Compound 3, Mammeasin F], for which, under setting [1], the inhibition at 100 µM stood at 14.9 ± 5.4%.

Consider `CCCC(=O)c1c(O)c(CC=C(C)C)c2oc(=O)cc(-c3ccccc3)c2c1O` [Compound 19, Mammea A/AC], for which the inhibition at 100 µM under setting [1] was 41.5 ± 11.4%.

Regarding `CCC(C)C(=O)c1c(O)c(CC=C(C)C)c2oc(=O)cc(-c3ccccc3)c2c1O` (centres unmarked) [Compound 18, mammea A/AB], the inhibition at 100 µM under setting [1] turned out to be 23.3 ± 7.2%.

For `CCC(C)C(=O)c1c(O)c(C/C=C(\C)CCC=C(C)C)c(O)c2c([C@H](CC)OC(C)=O)cc(=O)oc12` (some centres unmarked) [Compound 12, surangin B], under setting [1], the inhibition at 100 µM was 38.5 ± 5%.

`CC[C@H](O)c1cc(=O)oc2c(CC=C(C)C)c(O)c(C(=O)CC(C)C)c(O)c12` [Compound 11, Kayeassamin G]: the inhibition at 3 µM under setting [2] is 14.4 ± 9.7%. The inhibition at 10 µM under setting [3] turned out to be 37.5 ± 6.9%. Further, under setting [4], the inhibition at 30 µM was found to be 61.3 ± 3%. Moreover, the inhibition at 100 µM under setting [1] was 62.3 ± 3.2%.

The values are drawn from article PMC7099204, “Geranylated Coumarins From Thai Medicinal Plant Mammea siamensis With Testosterone 5α-Reductase Inhibitory Activity” (Frontiers in Chemistry, 2020).
